According to patent US20260062376A1, “SQUARAMIDE DERIVATIVES AS CB1 ALLOSTERIC MODULATORS” (RESEARCH TRIANGLE INSTITUTE, priority 2022, published 2026):

How the values were obtained:
[1] = molecular target: T1, Human CB1 (Homo sapiens (Human), UniProt P21554); assay: Human CB1 HEK293 membrane [35S]GTPγS binding assay; format: biochemical; settings: HEK293 membranes expressing human CB1; in presence of CP55,940; mean ± SEM; read-out: Human CB1 HEK293 membrane [35S]GTPγS binding assay pIC50 ± SEM (converted)
Experimental: Non-specific binding was determined by adding 30 μM unlabeled GTPγS.
(§1) Data Analysis: For calcium mobilization experiments, data were fit to a three-parameter logistic curve to generate IC50 values (GraphPad Prism 6.0, Graphpad Software, San Diego, California, United States of America). For [^35S]GTPγS experiments, data were normalized to maximal CP55,940 (100 nM) stimulation in the absence of test compound (i.e., vehicle=100%).

[2] = molecular target: T1, Human CB1; assay: Calcium mobilization assay (antagonist mode vs CP55,940); format: cell-based; settings: CHO-RD-HGA16 cells stably expressing human CB1; against EC50 concentration of CP55,940; mean ± SEM, at least three experiments
Experimental: Calcium Mobilization Assay: CHO-RD-HGA16 cells (Molecular Devices, San Jose, California, United States of America) stably expressing the human CB1 receptor were plated into 96-well black-walled assay plates at 25,000 cells/well in 100 μL of Ham's F12 (supplemented with 10% fetal bovine serum, 100 units of penicillin/streptomycin, and 100 μg/mL Normocin) and incubated overnight at 37° C., 5% CO2. Calcium 5 dye (Molecular Devices, San Jose, California, United States of America) was reconstituted according to the manufacturer's instructions. The reconstituted dye was diluted 1:40 in prewarmed (37° C.) assay buffer (lx HBSS, 20 mM HEPES, 2.5 mM probenecid, pH 7.4 at 37° C.). Growth medium was removed, and the cells were gently washed with 100 μL of prewarmed (37° C.) assay buffer. […] After the pretreatment incubation period, the plate was read with a FLIPR Tetra (Molecular Devices, San Jose, California, United States of America). […] Relative fluorescence units (RFU) were plotted against the log of compound concentrations. […] Test compound RFUs were compared to the CP55,940 Emax RFUs to generate % Emax values. For the CB2 agonist and antagonist assays, the same procedures were followed except that stable human CB2—CHO-RD-HGA16 cells were used.
as §1

T1 sequence (P21554 whole entry): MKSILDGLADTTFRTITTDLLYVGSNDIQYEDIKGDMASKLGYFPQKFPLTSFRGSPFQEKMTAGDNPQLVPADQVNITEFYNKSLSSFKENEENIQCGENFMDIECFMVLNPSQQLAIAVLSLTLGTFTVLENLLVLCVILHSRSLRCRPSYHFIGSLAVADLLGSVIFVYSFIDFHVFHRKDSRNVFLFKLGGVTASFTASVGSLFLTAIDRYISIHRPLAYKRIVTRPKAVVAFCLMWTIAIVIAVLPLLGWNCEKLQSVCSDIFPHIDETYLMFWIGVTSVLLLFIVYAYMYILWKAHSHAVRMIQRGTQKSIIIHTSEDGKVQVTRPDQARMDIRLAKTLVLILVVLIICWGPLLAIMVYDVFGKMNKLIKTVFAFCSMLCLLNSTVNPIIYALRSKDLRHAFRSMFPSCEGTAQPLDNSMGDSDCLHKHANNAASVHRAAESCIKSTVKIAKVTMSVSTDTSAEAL

SMILES: O=c1c(NCCc2ccccc2)c(Nc2ccc(Cl)cc2)c1=O [Compound 11, 3-[(4-Chlorophenyl)amino]-4-[(2-phenylethyl)amino]cyclobut-3-ene-1,2-dione]
- IC50 [1]: 776 nM
- IC50 [2]: 210 ± 39 nM

SMILES: O=c1c(NCCCc2ccccc2)c(Nc2ccc(Cl)cc2)c1=O [Compound 12, 3-[(4-Chlorophenyl)amino]-4-[(3-phenylpropyl)amino]cyclobut-3-ene-1,2-dione]
- IC50 [2]: 1040 ± 359 nM

SMILES: O=c1c(NCCc2ccc(Cl)cc2)c(Nc2ccc(Cl)cc2)c1=O [Compound 13, 3-[(4-Chlorophenyl)amino]-4-{[2-(4-chlorophenyl)ethyl]amino}cyclobut-3-ene-1,2-dione]
- IC50 [2]: 222 ± 35 nM

SMILES: Cc1cccc(CCNc2c(Nc3ccc(Cl)cc3)c(=O)c2=O)c1 [Compound 14, 3-[(4-Chlorophenyl)amino]-4-{[2-(3-methylphenyl)ethyl]amino}cyclobut-3-ene-1,2-dione]
- IC50 [2]: 205 ± 41 nM

SMILES: Cc1ccc(CCNc2c(Nc3ccc(Cl)cc3)c(=O)c2=O)cc1 [Compound 15, 3-[(4-Chlorophenyl)amino]-4-{[2-(4-methylphenyl)ethyl]amino}cyclobut-3-ene-1,2-dione]
- IC50 [2]: 164 ± 30 nM

SMILES: COc1ccccc1CCNc1c(Nc2ccc(Cl)cc2)c(=O)c1=O [Compound 16, 3-[(4-Chlorophenyl)amino]-4-{[2-(2-methoxyphenyl)ethyl]amino}cyclobut-3-ene-1,2-dione]
- IC50 [2]: 1110 ± 88 nM

SMILES: COc1cccc(CCNc2c(Nc3ccc(Cl)cc3)c(=O)c2=O)c1 [Compound 17, 3-[(4-Chlorophenyl)amino]-4-{[2-(3-methoxyphenyl)ethyl]amino}cyclobut-3-ene-1,2-dione]
- IC50 [2]: 350 ± 39 nM

SMILES: COc1ccc(CCNc2c(Nc3ccc(Cl)cc3)c(=O)c2=O)cc1 [Compound 18, 3-[(4-Chlorophenyl)amino]-4-{[2-(4-methoxyphenyl)ethyl]amino}cyclobut-3-ene-1,2-dione]
- IC50 [2]: 734 ± 310 nM

SMILES: O=c1c(NCCc2ccccc2C(F)(F)F)c(Nc2ccc(Cl)cc2)c1=O [Compound 19, 3-[(4-Chlorophenyl)amino]-4-({2-[2-(trifluoromethyl)phenyl]ethyl}amino)cyclobut-3-ene-1,2-dione]
- IC50 [2]: 933 nM

SMILES: O=c1c(NCCc2cccc(C(F)(F)F)c2)c(Nc2ccc(Cl)cc2)c1=O [Compound 20, 3-[(4-Chlorophenyl)amino]-4-({2-[3-(trifluoromethyl)phenyl]ethyl}amino)cyclobut-3-ene-1,2-dione]
- IC50 [2]: 360 ± 65 nM

SMILES: O=c1c(NCCc2ccc(C(F)(F)F)cc2)c(Nc2ccc(Cl)cc2)c1=O [Compound 21, 3-[(4-Chlorophenyl)amino]-4-({2-[4-(trifluoromethyl)phenyl]ethyl}amino)cyclobut-3-ene-1,2-dione]
- IC50 [2]: 275 ± 13 nM

SMILES: O=c1c(NCCc2ccc(F)cc2)c(Nc2ccc(Cl)cc2)c1=O [Compound 22, 3-[(4-Chlorophenyl)amino]-4-{[2-(4-fluorophenyl)ethyl]amino}cyclobut-3-ene-1,2-dione]
- IC50 [2]: 337 ± 21 nM

SMILES: O=c1c(NCCc2ccccc2Cl)c(Nc2ccc(Cl)cc2)c1=O [Compound 23, 3-[(4-Chlorophenyl)amino]-4-{[2-(2-chlorophenyl)ethyl]amino}cyclobut-3-ene-1,2-dione]
- IC50 [2]: 1290 ± 201 nM

SMILES: O=c1c(NCCc2ccccc2F)c(Nc2ccc(Cl)cc2)c1=O [Compound 24, 3-[(4-Chlorophenyl)amino]-4-{[2-(2-fluorophenyl)ethyl]amino}cyclobut-3-ene-1,2-dione]
- IC50 [2]: 274 ± 33 nM

SMILES: O=c1c(NCCc2cccc(F)c2)c(Nc2ccc(Cl)cc2)c1=O [Compound 25, 3-[(4-Chlorophenyl)amino]-4-{[2-(3-fluorophenyl)ethyl]amino}cyclobut-3-ene-1,2-dione]
- IC50 [2]: 286 ± 28 nM

SMILES: CN(C)c1cccc(CCNc2c(Nc3ccc(Cl)cc3)c(=O)c2=O)c1 [Compound 26, 3-[(4-Chlorophenyl)amino]-4-({2-[3-(dimethylamino)phenyl]ethyl}amino)cyclobut-3-ene-1,2-dione]
- IC50 [2]: 2100 ± 272 nM

SMILES: CN(C)c1ccc(CCNc2c(Nc3ccc(Cl)cc3)c(=O)c2=O)cc1 [Compound 27, 3-[(4-Chlorophenyl)amino]-4-({2-[4-(dimethylamino)phenyl]ethyl}amino)cyclobut-3-ene-1,2-dione]
- IC50 [2]: 535 ± 135 nM

SMILES: N#Cc1ccc(Nc2c(NCCc3cccc(Cl)c3)c(=O)c2=O)cc1 [Compound 28, 4-[(2-{[2-(3-Chlorophenyl)ethyl]amino}-3,4-dioxocyclobut-1-en-1-yl)amino]benzonitrile]
- IC50 [1]: 398 nM
- IC50 [2]: 460 ± 66 nM

SMILES: O=c1c(Nc2ccc(Cl)cc2)c(Nc2cccc(-c3ccccc3)c2)c1=O [Compound 29, 3-(Biphenyl-3-ylamino)-4-[(4-chlorophenyl)amino]cyclobut-3-ene-1,2-dione]
- IC50 [2]: 408 ± 94 nM

SMILES: O=c1c(Nc2ccc(Cl)cc2)c(Nc2cccc(-c3cscn3)c2)c1=O [Compound 31, 3-[(4-Chlorophenyl)amino]-4-{[3-(1,3-thiazol-4-yl)phenyl]amino}cyclobut-3-ene-1,2-dione]
- IC50 [2]: 154 ± 14 nM

SMILES: O=c1c(Nc2ccc(Cl)cc2)c(Nc2cccc(-c3ccsc3)c2)c1=O [Compound 32, 3-[(4-Chlorophenyl)amino]-4-{[3-(thiophen-3-yl)phenyl]amino}cyclobut-3-ene-1,2-dione]
- IC50 [2]: 463 ± 56 nM

SMILES: O=c1c(Nc2ccc(Cl)cc2)c(Nc2ccc(-c3ccccc3)cc2)c1=O [Compound 34, 3-(Biphenyl-4-ylamino)-4-[(4-chlorophenyl)amino]cyclobut-3-ene-1,2-dione]
- IC50 [2]: 1480 ± 297 nM

SMILES: Cc1ccccc1CCNc1c(Nc2ccc(Cl)cc2)c(=O)c1=O [Compound 35, 3-[(4-Chlorophenyl)amino]-4-{[2-(2-methylphenyl)ethyl]amino}cyclobut-3-ene-1,2-dione]
- IC50 [2]: 353 ± 37 nM

SMILES: O=c1c(NCCc2ccccn2)c(Nc2ccc(Cl)cc2)c1=O [Compound 36, 3-[(4-Chlorophenyl)amino]-4-{[2-(pyridin-2-yl)ethyl]amino}cyclobut-3-ene-1,2-dione]
- IC50 [2]: 958 ± 60 nM

SMILES: O=c1c(NCCc2ccncc2)c(Nc2ccc(Cl)cc2)c1=O [Compound 37, 3-[(4-Chlorophenyl)amino]-4-{[2-(pyridin-4-yl)ethyl]amino}cyclobut-3-ene-1,2-dione]
- IC50 [2]: > 10000 nM

SMILES: O=c1c(NCCc2ccc(Br)cc2)c(Nc2ccc(Cl)cc2)c1=O [Compound 38, 3-[(4-Chlorophenyl)amino]-4-{[2-(4-bromophenyl)ethyl]amino}cyclobut-3-ene-1,2-dione]
- IC50 [2]: 333 ± 7 nM

SMILES: O=c1c(NCCc2cccs2)c(Nc2ccc(Cl)cc2)c1=O [Compound 39, 3-[(4-Chlorophenyl)amino]-4-{[2-(thiophen-2-yl)ethyl]amino}cyclobut-3-ene-1,2-dione]
- IC50 [2]: 399 ± 22 nM

SMILES: O=c1c(NCCc2ccc(Cl)c(Cl)c2)c(Nc2ccc(Cl)cc2)c1=O [Compound 41, 3-[(4-Chlorophenyl)amino]-4-{[2-(3,4-dichlorophenyl)ethyl]amino}cyclobut-3-ene-1,2-dione]
- IC50 [2]: 877 ± 31 nM

SMILES: Cc1ccc(CCNc2c(Nc3ccc(Cl)cc3)c(=O)c2=O)cc1C [Compound 42, 3-[(4-Chlorophenyl)amino]-4-{[2-(3,4-dimethylphenyl)ethyl]amino}cyclobut-3-ene-1,2-dione]
- IC50 [2]: 408 ± 66 nM

SMILES: O=c1c(NCCc2cccc(O)c2)c(Nc2ccc(Cl)cc2)c1=O [Compound 43, 3-[(4-Chlorophenyl)amino]-4-{[2-(3-hydroxyphenyl)ethyl]amino}cyclobut-3-ene-1,2-dione]
- IC50 [2]: 2070 ± 204 nM

SMILES: O=c1c(NCCc2ccc(Cl)cc2Cl)c(Nc2ccc(Cl)cc2)c1=O [Compound 44, 3-[(4-Chlorophenyl)amino]-4-{[2-(2,4-dichlorophenyl)ethyl]amino}cyclobut-3-ene-1,2-dione]
- IC50 [2]: 1140 ± 183 nM

SMILES: O=c1c(NCCN2CCCCC2)c(Nc2ccc(Cl)cc2)c1=O [Compound 45, 3-[(4-Chlorophenyl)amino]-4-{[2-(piperidin-1-yl)ethyl]amino}cyclobut-3-ene-1,2-dione]
- IC50 [2]: > 10000 nM

SMILES: CCN(CC)c1ccc(CCNc2c(Nc3ccc(Cl)cc3)c(=O)c2=O)cc1 [Compound 48, 3-[(4-Chlorophenyl)amino]-4-({2-[4-(diethylamino)phenyl]ethyl}amino)cyclobut-3-ene-1,2-dione]
- IC50 [2]: 639 ± 247 nM

SMILES: O=c1c(NCCc2ccc(N3CCCCC3)cc2)c(Nc2ccc(Cl)cc2)c1=O [Compound 49, 3-[(4-Chlorophenyl)amino]-4-{[2-(4-piperidin-1-ylphenyl)ethyl]amino}cyclobut-3-ene-1,2-dione]
- IC50 [2]: > 10000 nM

SMILES: O=c1c(NCCc2ccc(N3CCCC3)cc2)c(Nc2ccc(Cl)cc2)c1=O [Compound 50, 3-[(4-Chlorophenyl)amino]-4-{[2-(4-pyrrolidin-1-ylphenyl)ethyl]amino}cyclobut-3-ene-1,2-dione]
- IC50 [2]: > 10000 nM

SMILES: O=c1c(NCCc2ccc(N3CCC3)cc2)c(Nc2ccc(Cl)cc2)c1=O [Compound 51, 3-{[2-(4-Azetidin-1-ylphenyl)ethyl]amino}-4-[(4-chlorophenyl)amino]cyclobut-3-ene-1,2-dione]
- IC50 [2]: > 10000 nM
